Test results as given in patent publication US20250313528A1, “NOVEL COMPOUND AND PHARMACEUTICAL COMPOSITION FOR PREVENTING OR TREATING PULMONARY FIBROSIS COMPRISING SAME AS ACTIVE INGREDIENT” (GIL MEDICAL CENTER, priority 2022, published 2025).

Key:
Assay type in all cases: cell-based, human
FN, COL1A1, and α-SMA [1] = experiment: qRT-PCR of fibrosis-related genes in TGF-β1-induced DHLF-IPF cells; conditions: 10 μM pretreatment 1 hour, TGF-β1 1 ng/ml 48 hours, FIG. 4c/4d
Method: (§1) MRC-5 and DHLF-IPF cells were each cultured in growth medium, and the medium was removed. […] The medium was then removed, and the cells were washed once with PBS. Intracellular total RNA was extracted from the cultured cells using TRIzol reagent (TaKaRa Bio Inc., Japan) for gene expression analysis. 1 mL of TRIzol reagent was added to lyse the cells and denature the tissue. The lysate was transferred to each 1.5 mL tube, and 200 μL of chloroform was added thereto, followed by vortexing for 20 seconds to ensure complete mixing. After incubating at room temperature for 15 minutes, the mixture was centrifuged at 14,000 rpm for 20 minutes to obtain the supernatant. After adding an equal volume of isopropyl alcohol, the tubes were inverted and incubated at room temperature for 10 minutes. The sample was centrifuged at 14,000 rpm for 15 minutes to obtain an RNA pellet, which was washed by centrifugation with 70% ethanol for use on RNA at 14,000 rpm for 5 minutes, and dried for 5 minutes. The dried RNA sample was added with 20 μL of distilled water treated with 0.1% diethyl pyrocarbonate (DEPC) to dissolve the pallet and the resultant was used as a sample for cDNA synthesis. 1 μL of the same was used to measure the RNA concentration and purity at O.D. 260/280 nm using a Nanodrop.
(§2) Single-stranded cDNA synthesis was performed by mixing 1 μg of the extracted total RNA with 1 μL of oligo-d(T) primer ([…]) and 10 mM dNTP (TaKaRa Bio Inc., Japan), reacting at 65° C. for 5 minutes, followed by rapid cooling. To this template, 4 μL of 5×RT buffer, 0.5 μL of RNA inhibitor, and 100 units of RTase (TaKaRa Bio Inc., Japan) were added, and the total volume was adjusted to 20 μL using DEPC-treated distilled water. […]
(§3) Each gene expression level was measured using real-time PCR. […] The specificity of the amplified product was confirmed through melting curve analysis, and the target genes were quantified and compared using GAPDH as a control gene.

FN, COL1A1, and α-SMA [2] = experiment: qRT-PCR of fibrosis-related genes in TGF-β1-induced MRC-5 cells; conditions: MRC-5, 10 μM pretreatment 1 hour, TGF-β1 1 ng/ml 48 hours, FIG. 4c/4d
Method: as §1, §2, §3

fibronectin and α-SMA [3] = experiment: Western blotting of fibrosis-related proteins in TGF-β1-induced MRC-5 cells; conditions: MRC-5, TGF-β1 1 ng/ml, 10 μM, FIG. 4b
Method: Since the overexpression of extracellular matrix components such as fibronectin and α-SMA serves as an indicator of fibrotic changes in tissues, MRC-5 cells induced to undergo fibrosis by TGF-β1 were treated with each compound at different concentrations to compare the expression levels of fibronectin and α-SMA.
(§4) Specifically, to extract fibronectin and α-SMA proteins, the cells were washed once with cold PBS and then RIPA buffer (150 mM NaCl, 0.5% Triton X-100, 50 mM Tris-HCl, pH 7.4, 25 mM NaF, 20 mM EGTA), which was added with a protease inhibitor cocktail, was added thereto to lyse the cells. Then, the proteins were quantified using a BCA protein assay kit. All protein samples were subjected to electrophoresis at 10 μg on 8% to 10% PAGE gels and then transferred to 0.2 μm PVDF membranes (EMD Millipore, MA, USA). The membranes to which the protein was transferred were blocked with 5% BSA or 5% skim milk for 1 hour, and then primary antibodies were added thereto and incubated overnight at 4° C. The following day, the membranes were washed three times with PBST, and then HRP-conjugated secondary antibodies were added and reacted at room temperature for 1 hour. The PVDF membranes prepared through such procedures were smeared with ECL (Luminata™ Crescendo, EMD Millipore) and exposed to a fluorescence reader to confirm the level of protein expression.
The specific experimental methods are the same as in Example 2, and sulforaphane was treated at a concentration of 20 μM, Compound 1 at 5 μM, 10 μM, and 20 μM, and Compound 2 at 2.5 μM, 5 μM, and 10 μM, respectively.
(§5) To compare the changes in fibrosis-related protein expression by treating normal MRC-5 and diseased DHLF-IPF cell lines induced with pulmonary fibrosis by TGF-β1 with SFN and the two candidate compounds, Western blotting was performed.
(§6) The specific experimental methods are the same as in Example 2. TGF-β1 was treated at 1 ng/ml to induce fibrosis, and sulforaphane and the two compounds each were treated at a concentration of 10 μM.

fibronectin and α-SMA [4] = experiment: Western blotting of fibrosis-related proteins in TGF-β1-induced DHLF-IPF cells; conditions: TGF-β1 1 ng/ml, 10 μM, FIG. 4b
Method: as §4, §5, §6

C[S+]([O-])CCCCN=C=S (stereo not shown) [sulforaphane, reference compound]
reduced: gene expression levels of FN, COL1A1, and α-SMA (FN, COL1A1, and α-SMA [1]) | gene expression levels of FN, COL1A1, and α-SMA (FN, COL1A1, and α-SMA [2]) | expression levels of fibronectin and α-SMA protein (fibronectin and α-SMA [3]) | expression levels of fibronectin and α-SMA protein (fibronectin and α-SMA [4])
